# Measurements from patent publication US10351575B2, “Bicyclic urea, thiourea, guanidine and cyanoguanidine compounds useful for the treatment of pain” (Array BioPharma Inc., priority 2012, dated 2019).
# Legend:
# Assay in all cases: KinaseProfiler off-target kinase profiling
# Type in all cases: biochemical
# Settings in all cases: 10 μM, ATP near Km
# ALK = ALK (Homo sapiens (Human), UniProt Q9UM73)
# Protocol: (§1) Representative compounds (Examples 12, 32, 26 and 2) of the invention were tested for off-target kinase activity at a concentration of 10 μM by Millipore, Inc. in their KinaseProfiler™ service against all the kinases available in their full kinase panel. Compounds were run in duplicate at a concentration of ATP near the Km for each individual kinase according to Millipore's specifications. The results are shown in Table B. Data are reported as percent of control (POC) and are the average of the two replicates.
# ALK4 = ALK4 (Homo sapiens (Human), UniProt P36896)
# Protocol: as §1
# AMPK(A1/B1/G1) = AMPK(A1/B1/G1) (Homo sapiens (Human), UniProt Q13131)
# Protocol: as §1
# AURKA = AURKA (Homo sapiens (Human), UniProt O14965)
# Protocol: as §1
# CDK9/cyclinT1 = CDK9/cyclinT1 (Homo sapiens (Human), UniProt P50750)
# Protocol: as §1
# CHK1 = CHK1 (Homo sapiens (Human), UniProt O14757)
# Protocol: as §1
# CHK2 = CHK2 (Homo sapiens (Human), UniProt O96017)
# Protocol: as §1
# CK1_y = system: CK1_y
# Protocol: as §1
# CK2 = CK2 (Homo sapiens (Human), UniProt P68400)
# Protocol: as §1
# CSK = CSK (Homo sapiens (Human), UniProt P41240)
# Protocol: as §1
# DAPK2 = DAPK2 (Homo sapiens (Human), UniProt Q9UIK4)
# Protocol: as §1
# DDR2 = DDR2 (Homo sapiens (Human), UniProt Q16832)
# Protocol: as §1
# FGFR3 = FGFR3 (Homo sapiens (Human), UniProt P22607)
# Protocol: as §1
# FGFR4 = FGFR4 (Homo sapiens (Human), UniProt P22455)
# Protocol: as §1
# Fyn = Fyn (Homo sapiens (Human), UniProt P06241)
# Protocol: as §1
# GRK6 = GRK6 (Homo sapiens (Human), UniProt P43250)
# Protocol: as §1
# GSK3beta = GSK3beta (Homo sapiens (Human), UniProt P49841)
# Protocol: as §1
# Hck = Hck (Homo sapiens (Human), UniProt P08631)
# Protocol: as §1
# IKKalpha = IKKalpha (Homo sapiens (Human), UniProt O15111)
# Protocol: as §1
# JAK3 = JAK3 (Homo sapiens (Human), UniProt P52333)
# Protocol: as §1
# MAP4K2 = MAP4K2 (Homo sapiens (Human), UniProt Q12851)
# Protocol: as §1
# MINK = MINK (Homo sapiens (Human), UniProt Q8N4C8)
# Protocol: as §1
# NEK11 = NEK11 (Homo sapiens (Human), UniProt Q8NG66)
# Protocol: as §1
# PAK5 = PAK5 (Homo sapiens (Human), UniProt Q9P286)
# Protocol: as §1
# PASK = PASK (Homo sapiens (Human), UniProt Q96RG2)
# Protocol: as §1
# PDK1 = PDK1 (Homo sapiens (Human), UniProt O15530)
# Protocol: as §1
# PKCgamma = PKCgamma (Homo sapiens (Human), UniProt P05129)
# Protocol: as §1
# PKCtheta = PKCtheta (Homo sapiens (Human), UniProt Q04759)
# Protocol: as §1
# Pim-1 = Pim-1 (Homo sapiens (Human), UniProt P11309)
# Protocol: as §1
# SGK1 = SGK1 (Homo sapiens (Human), UniProt O00141)
# Protocol: as §1
# SRPK2 = SRPK2 (Homo sapiens (Human), UniProt P78362)
# Protocol: as §1
# TAO2 = TAO2 (Homo sapiens (Human), UniProt Q9UL54)
# Protocol: as §1
# TEC Activated = TEC Activated (Homo sapiens (Human), UniProt P42680)
# Protocol: as §1
# VRK2 = VRK2 (Homo sapiens (Human), UniProt Q86Y07)
# Protocol: as §1
# WNK2 = WNK2 (Homo sapiens (Human), UniProt Q9Y3S1)
# Protocol: as §1
# WNK3 = WNK3 (Homo sapiens (Human), UniProt Q9BYP7)
# Protocol: as §1
# ZAP-70 = ZAP-70 (Homo sapiens (Human), UniProt P43403)
# Protocol: as §1
# c-RAF = c-RAF (Homo sapiens (Human), UniProt P04049, Y340D/Y341D)
# Protocol: as §1
# mTOR/FKBP12 = mTOR/FKBP12 (Homo sapiens (Human), UniProt P42345)
# Protocol: as §1
# Sequence of JAK3 (P52333 whole entry): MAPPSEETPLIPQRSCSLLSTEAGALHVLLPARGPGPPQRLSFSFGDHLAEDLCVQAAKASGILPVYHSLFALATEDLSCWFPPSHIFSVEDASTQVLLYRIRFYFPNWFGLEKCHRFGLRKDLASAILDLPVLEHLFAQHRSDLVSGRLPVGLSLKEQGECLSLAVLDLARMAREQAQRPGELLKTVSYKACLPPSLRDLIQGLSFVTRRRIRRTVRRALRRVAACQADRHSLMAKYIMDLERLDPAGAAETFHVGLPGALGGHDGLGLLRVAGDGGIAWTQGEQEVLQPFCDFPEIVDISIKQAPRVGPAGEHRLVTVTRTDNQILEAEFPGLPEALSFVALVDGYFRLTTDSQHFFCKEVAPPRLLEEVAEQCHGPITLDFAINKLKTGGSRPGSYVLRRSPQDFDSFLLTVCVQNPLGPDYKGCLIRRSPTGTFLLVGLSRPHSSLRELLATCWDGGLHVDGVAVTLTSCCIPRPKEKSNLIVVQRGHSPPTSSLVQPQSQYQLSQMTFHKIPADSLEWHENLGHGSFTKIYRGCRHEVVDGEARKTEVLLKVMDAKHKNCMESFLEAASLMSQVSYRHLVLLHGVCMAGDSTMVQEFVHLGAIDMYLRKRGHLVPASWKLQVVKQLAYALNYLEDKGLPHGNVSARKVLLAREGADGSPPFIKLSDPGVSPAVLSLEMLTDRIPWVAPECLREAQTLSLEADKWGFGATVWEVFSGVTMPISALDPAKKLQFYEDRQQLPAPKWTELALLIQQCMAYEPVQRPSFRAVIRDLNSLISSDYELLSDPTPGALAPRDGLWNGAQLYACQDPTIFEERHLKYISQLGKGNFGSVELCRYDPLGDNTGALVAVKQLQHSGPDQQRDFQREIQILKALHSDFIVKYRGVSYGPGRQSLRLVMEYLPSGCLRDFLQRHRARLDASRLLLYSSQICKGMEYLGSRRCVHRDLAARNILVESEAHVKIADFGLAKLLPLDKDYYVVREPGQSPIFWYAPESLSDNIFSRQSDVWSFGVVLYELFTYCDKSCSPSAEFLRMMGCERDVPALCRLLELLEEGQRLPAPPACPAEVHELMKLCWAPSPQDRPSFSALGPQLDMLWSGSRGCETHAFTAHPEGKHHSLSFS
# Sequence of WNK2 (Q9Y3S1 whole entry): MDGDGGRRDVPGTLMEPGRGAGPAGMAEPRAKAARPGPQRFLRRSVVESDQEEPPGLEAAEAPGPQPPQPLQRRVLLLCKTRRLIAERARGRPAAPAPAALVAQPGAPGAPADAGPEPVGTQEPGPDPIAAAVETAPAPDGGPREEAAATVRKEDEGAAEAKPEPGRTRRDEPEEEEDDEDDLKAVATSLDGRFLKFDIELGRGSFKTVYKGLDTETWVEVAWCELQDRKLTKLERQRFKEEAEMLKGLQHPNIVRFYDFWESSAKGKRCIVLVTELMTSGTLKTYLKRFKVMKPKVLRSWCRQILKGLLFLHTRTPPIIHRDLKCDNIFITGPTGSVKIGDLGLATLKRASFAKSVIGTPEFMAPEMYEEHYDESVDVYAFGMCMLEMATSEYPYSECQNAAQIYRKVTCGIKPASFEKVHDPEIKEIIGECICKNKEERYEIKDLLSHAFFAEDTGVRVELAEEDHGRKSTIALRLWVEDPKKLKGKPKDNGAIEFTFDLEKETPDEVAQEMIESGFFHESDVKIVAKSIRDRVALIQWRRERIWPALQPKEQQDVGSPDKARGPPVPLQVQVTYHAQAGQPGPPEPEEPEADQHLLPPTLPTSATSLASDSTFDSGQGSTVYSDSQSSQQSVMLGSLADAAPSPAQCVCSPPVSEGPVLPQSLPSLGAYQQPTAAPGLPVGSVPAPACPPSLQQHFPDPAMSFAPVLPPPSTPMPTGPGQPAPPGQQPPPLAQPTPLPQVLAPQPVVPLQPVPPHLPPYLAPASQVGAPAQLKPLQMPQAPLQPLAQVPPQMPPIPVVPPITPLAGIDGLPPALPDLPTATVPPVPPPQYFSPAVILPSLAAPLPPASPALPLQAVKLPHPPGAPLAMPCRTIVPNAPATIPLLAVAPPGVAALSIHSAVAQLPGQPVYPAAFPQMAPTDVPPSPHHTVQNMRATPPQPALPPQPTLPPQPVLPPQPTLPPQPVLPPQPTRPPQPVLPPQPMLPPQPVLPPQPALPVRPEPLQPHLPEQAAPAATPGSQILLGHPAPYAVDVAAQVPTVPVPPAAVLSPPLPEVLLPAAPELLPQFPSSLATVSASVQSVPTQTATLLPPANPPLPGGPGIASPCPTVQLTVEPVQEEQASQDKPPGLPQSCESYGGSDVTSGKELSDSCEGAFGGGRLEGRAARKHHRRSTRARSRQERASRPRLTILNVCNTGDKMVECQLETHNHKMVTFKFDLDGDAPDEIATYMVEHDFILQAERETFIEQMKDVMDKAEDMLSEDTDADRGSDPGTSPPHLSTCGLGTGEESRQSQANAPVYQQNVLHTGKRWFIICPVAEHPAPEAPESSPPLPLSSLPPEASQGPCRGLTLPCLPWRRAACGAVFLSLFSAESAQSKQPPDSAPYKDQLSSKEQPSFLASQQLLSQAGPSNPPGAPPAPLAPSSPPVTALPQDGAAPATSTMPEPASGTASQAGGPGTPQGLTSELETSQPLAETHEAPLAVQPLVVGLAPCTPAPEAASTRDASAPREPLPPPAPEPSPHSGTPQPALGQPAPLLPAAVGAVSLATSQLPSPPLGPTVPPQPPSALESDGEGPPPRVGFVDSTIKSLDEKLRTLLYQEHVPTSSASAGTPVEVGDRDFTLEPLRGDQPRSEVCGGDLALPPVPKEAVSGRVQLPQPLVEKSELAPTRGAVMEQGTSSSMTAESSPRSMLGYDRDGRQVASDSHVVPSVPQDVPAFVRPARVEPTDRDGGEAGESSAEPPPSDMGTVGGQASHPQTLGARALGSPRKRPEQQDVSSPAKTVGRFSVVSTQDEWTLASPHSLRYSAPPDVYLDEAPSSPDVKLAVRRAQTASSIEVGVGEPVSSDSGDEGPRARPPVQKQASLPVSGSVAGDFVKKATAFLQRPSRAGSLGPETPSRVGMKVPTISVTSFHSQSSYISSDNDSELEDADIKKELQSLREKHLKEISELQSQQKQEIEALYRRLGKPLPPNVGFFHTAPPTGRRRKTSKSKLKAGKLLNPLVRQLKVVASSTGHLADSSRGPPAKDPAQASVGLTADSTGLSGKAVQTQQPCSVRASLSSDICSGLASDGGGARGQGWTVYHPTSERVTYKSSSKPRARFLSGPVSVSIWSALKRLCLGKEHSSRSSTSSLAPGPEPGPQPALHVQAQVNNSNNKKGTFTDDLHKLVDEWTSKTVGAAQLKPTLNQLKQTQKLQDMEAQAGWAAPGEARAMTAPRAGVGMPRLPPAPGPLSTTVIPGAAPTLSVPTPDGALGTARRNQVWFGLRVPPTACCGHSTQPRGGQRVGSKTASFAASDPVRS
# Sequence of PKCtheta (Q04759 whole entry): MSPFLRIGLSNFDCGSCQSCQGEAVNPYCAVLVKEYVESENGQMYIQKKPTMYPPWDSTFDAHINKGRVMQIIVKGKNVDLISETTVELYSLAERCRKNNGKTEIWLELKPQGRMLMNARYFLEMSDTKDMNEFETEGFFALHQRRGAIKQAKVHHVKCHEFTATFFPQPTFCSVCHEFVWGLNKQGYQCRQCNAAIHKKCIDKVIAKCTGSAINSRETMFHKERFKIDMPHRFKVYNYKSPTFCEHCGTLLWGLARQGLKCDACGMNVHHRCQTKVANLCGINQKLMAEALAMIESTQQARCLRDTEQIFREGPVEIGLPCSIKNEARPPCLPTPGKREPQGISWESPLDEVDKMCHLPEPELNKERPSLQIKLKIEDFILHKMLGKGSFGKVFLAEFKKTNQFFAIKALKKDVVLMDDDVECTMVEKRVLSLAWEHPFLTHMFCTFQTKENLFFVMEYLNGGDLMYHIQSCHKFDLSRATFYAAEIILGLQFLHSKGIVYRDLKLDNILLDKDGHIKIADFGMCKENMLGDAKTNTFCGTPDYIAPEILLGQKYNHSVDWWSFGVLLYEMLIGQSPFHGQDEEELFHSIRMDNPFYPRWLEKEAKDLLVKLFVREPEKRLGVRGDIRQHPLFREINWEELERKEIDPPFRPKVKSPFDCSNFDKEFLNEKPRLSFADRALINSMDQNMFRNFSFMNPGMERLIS
# Sequence of Fyn (P06241 whole entry): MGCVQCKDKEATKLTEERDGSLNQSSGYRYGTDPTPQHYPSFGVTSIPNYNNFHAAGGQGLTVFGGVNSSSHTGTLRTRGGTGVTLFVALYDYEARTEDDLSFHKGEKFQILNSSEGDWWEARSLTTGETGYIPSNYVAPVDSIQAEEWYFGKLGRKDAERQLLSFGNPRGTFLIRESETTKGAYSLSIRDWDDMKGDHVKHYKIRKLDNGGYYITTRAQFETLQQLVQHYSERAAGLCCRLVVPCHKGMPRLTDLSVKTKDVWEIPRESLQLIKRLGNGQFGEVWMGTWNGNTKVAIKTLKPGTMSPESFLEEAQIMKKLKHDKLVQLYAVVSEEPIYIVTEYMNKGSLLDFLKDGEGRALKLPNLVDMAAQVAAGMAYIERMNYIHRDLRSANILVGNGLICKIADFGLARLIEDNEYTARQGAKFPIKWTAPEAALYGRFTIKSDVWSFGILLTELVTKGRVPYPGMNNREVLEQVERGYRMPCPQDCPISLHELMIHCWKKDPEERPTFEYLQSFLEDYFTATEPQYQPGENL
# Sequence of GSK3beta (P49841 whole entry): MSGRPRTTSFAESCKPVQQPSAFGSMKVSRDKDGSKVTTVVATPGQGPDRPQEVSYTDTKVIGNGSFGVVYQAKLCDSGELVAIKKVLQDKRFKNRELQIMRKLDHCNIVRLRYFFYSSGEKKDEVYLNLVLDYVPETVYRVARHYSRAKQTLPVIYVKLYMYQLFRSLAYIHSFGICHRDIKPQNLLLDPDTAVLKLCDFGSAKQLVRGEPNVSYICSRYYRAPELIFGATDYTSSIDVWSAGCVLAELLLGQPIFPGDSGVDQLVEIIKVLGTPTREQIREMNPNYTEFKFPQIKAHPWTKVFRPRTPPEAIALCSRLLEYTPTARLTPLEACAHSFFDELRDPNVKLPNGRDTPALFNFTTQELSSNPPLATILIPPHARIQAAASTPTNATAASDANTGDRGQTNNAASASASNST
Avg. POC (ALK) [POC],Avg. POC (ALK4) [POC],Avg. POC (AMPK(A1/B1/G1)) [POC],Avg. POC (AURKA) [POC],Avg. POC (CDK9/cyclinT1) [POC],Avg. POC (CHK1) [POC],Avg. POC (CHK2) [POC],Avg. POC (CK2) [POC],Avg. POC (CSK) [POC],Avg. POC (DAPK2) [POC],Avg. POC (DDR2) [POC],Avg. POC (FGFR3) [POC],Avg. POC (FGFR4) [POC],Avg. POC (Fyn) [POC],Avg. POC (GRK6) [POC],Avg. POC (GSK3beta) [POC],Avg. POC (Hck) [POC],Avg. POC (IKKalpha) [POC],Avg. POC (JAK3) [POC],Avg. POC (MAP4K2) [POC],Compound,further results
111,98.5,152.5,126,127,106.5,119,107,124,123.5,113,113.5,124,123.5,103.5,126,85.5,141.5,142.5,110,"Cc1c(-c2cnn(C)c2)nn(-c2ccccc2)c1NC(=O)N[C@H]1CCCc2ccccc21 [Example 2, (S)-1-(1′,4-dimethyl-1-phenyl-1H,1′H-3,4′-bipyrazol-5-yl)-3-(1,2,3,4-tetrahydronaphthalen-1-yl)urea]",Avg. POC (CK1_y): 100.5 POC; Avg. POC (MINK): 110.5 POC; Avg. POC (NEK11): 108.5 POC; Avg. POC (PAK5): 109.5 POC; Avg. POC (PASK): 143 POC; Avg. POC (PDK1): 120.5 POC; Avg. POC (PKCgamma): 102 POC; Avg. POC (PKCtheta): 101 POC; Avg. POC (Pim-1): 173 POC; Avg. POC (SGK1): 150 POC; Avg. POC (SRPK2): 106 POC; Avg. POC (TAO2): 110 POC; Avg. POC (TEC Activated): 153 POC; Avg. POC (VRK2): 109 POC; Avg. POC (WNK2): 99 POC; Avg. POC (WNK3): 109.5 POC; Avg. POC (ZAP-70): 124 POC; Avg. POC (c-RAF): 103.5 POC; Avg. POC (mTOR/FKBP12): 105 POC
103,101,117,111,106,99.5,92,98,131.5,102.5,107,109,119,92.5,103,109.5,103.5,119.5,112,107.5,"Cc1c(-c2cnn(C)c2)nn(-c2ccccc2)c1NC(=O)NC1CCOc2cc(F)ccc21 (centres unmarked) [Example 12, 1-(1′,4-dimethyl-1-phenyl-1H,1′H-[3,4′-bipyrazol]-5-yl)-3-(7-fluorochroman-4-yl)urea]",Avg. POC (CK1_y): 101 POC; Avg. POC (MINK): 102 POC; Avg. POC (NEK11): 84.5 POC; Avg. POC (PAK5): 143 POC; Avg. POC (PASK): 125.5 POC; Avg. POC (PDK1): 105.5 POC; Avg. POC (PKCgamma): 104.5 POC; Avg. POC (PKCtheta): 117.5 POC; Avg. POC (Pim-1): 106 POC; Avg. POC (SGK1): 129 POC; Avg. POC (SRPK2): 101.5 POC; Avg. POC (TAO2): 121 POC; Avg. POC (TEC Activated): 122.5 POC; Avg. POC (VRK2): 95 POC; Avg. POC (WNK2): 106.5 POC; Avg. POC (WNK3): 112.5 POC; Avg. POC (ZAP-70): 140 POC; Avg. POC (c-RAF): 96 POC; Avg. POC (mTOR/FKBP12): 105.5 POC
117,102.5,122.5,107.5,112.5,70.5,109,110.5,118.5,108.5,111,101,123,115.5,100.5,124.5,91.5,112.5,112,121,"Cc1c(-c2ccc(=O)n(C)c2)nn(-c2ccccc2)c1NC(=O)NC1CN(CC(F)(F)F)Cc2ccccc21 (centres unmarked) [Example 26, 1-(4-methyl-3-(1-methyl-6-oxo-1,6-dihydropyridin-3-yl)-1-phenyl-1H-pyrazol-5-yl)-3-(2-(2,2,2-trifluoroethyl)-1,2,3,4-tetrahydroisoquinolin-4-yl)urea]",Avg. POC (MINK): 126.5 POC; Avg. POC (NEK11): 113.5 POC; Avg. POC (PAK5): 121.5 POC; Avg. POC (PASK): 124.5 POC; Avg. POC (PDK1): 115 POC; Avg. POC (PKCgamma): 99 POC; Avg. POC (PKCtheta): 109 POC; Avg. POC (Pim-1): 97.5 POC; Avg. POC (SGK1): 97.5 POC; Avg. POC (SRPK2): 106 POC; Avg. POC (TAO2): 111 POC; Avg. POC (TEC Activated): 113.5 POC; Avg. POC (VRK2): 98 POC; Avg. POC (WNK2): 108 POC; Avg. POC (WNK3): 103.5 POC; Avg. POC (ZAP-70): 120.5 POC; Avg. POC (c-RAF): 106.5 POC; Avg. POC (mTOR/FKBP12): 107.5 POC
127,100.5,138.5,112.5,106.5,103,112,97,123,103,116,107,139.5,111,101,84.5,98,102,109.5,119.5,"COCc1ccc2c(c1)C(NC(=O)Nc1c(C)c(-c3cnn(C)c3)nn1-c1ccccc1)COC2 (centres unmarked) [Example 32, 1-(1′,4-dimethyl-1-phenyl-1H,1′H-[3,4′-bipyrazol]-5-yl)-3-(6-(methoxymethyl)isochroman-4-yl)urea]",Avg. POC (CK1_y): 107.5 POC; Avg. POC (MINK): 124 POC; Avg. POC (NEK11): 108 POC; Avg. POC (PAK5): 111 POC; Avg. POC (PASK): 137 POC; Avg. POC (PDK1): 101.5 POC; Avg. POC (PKCgamma): 104 POC; Avg. POC (PKCtheta): 117 POC; Avg. POC (Pim-1): 109 POC; Avg. POC (SGK1): 119 POC; Avg. POC (SRPK2): 106.5 POC; Avg. POC (TAO2): 104 POC; Avg. POC (TEC Activated): 108.5 POC; Avg. POC (VRK2): 100.5 POC; Avg. POC (WNK2): 108.5 POC; Avg. POC (WNK3): 103.5 POC; Avg. POC (ZAP-70): 124 POC; Avg. POC (c-RAF): 101.5 POC; Avg. POC (mTOR/FKBP12): 113.5 POC
